The subject of experiment [1] is MDA-MB-468 breast cancer cell line. Nature of the experiment: Proliferation assay (MTT). The conditions noted are these: Homo sapiens, MDA-MB-468, Table 2.2; Breast MDA-MB-468; read-out: IC50. Format: cell-based.
Experiment [2] relates to PGE2. Nature of the experiment: Eicosanoid synthesis in LPS-stimulated murine macrophages (RAW 264.7). Format: cell-based, mouse. The conditions noted are these: 10 μM; negative values indicate inhibition. Here is the method: (§1) The mouse macrophage cell line RAW 264.7 was cultured in DMEM supplemented with foetal calf serum (FCS), 2 mM glutamine and 50 U/ml penicillin/streptomycin. Subconfluent cells were detached from the flask by gentle scraping and 24-well plates seeded at 5×10^5 cells per well and allowed to adhere for 1 hr. Cells were then treated either test compound at a concentration of 10 μM (in 0.025% DMSO) or vehicle alone, and incubated for 1 hr. LPS 50 ng/ml (LPS—Sigma-Aldrich) was then added. After incubation for 16 hrs, culture media was collected and stored at −80° C. for ecosanoid measurements using enzyme immunometric assays (PGE2 and TXB2—Cayman Chemical).
(§2) Table 16: Percentage change in eicosanoid synthesis after incubating test compound at 10 μM compared with incubation with vehicle alone.

For experiment [3], the system named is TXB2. The description is as above. Conditions: 10 μM; negative values indicate inhibition. It counts as cell-based, mouse. Here is the method: as §1, §2
Experiment [4] deals with HT-29 (Colorectal). Nature of the experiment: Proliferation assay (MTT). It counts as cell-based. Conditions: Homo sapiens, HT-29, Table 2.2; Colorectal HT-29. Here is the method:
(§3) All cultures were supplemented with 10% FCS (fetal calf serum CSL, Australia), penicillin (100 U/ml), streptomycin ([…]), L-glutamine (2 mM) and sodium bicarbonate (1.2 g/L), and cultured at 37° C. in a humidified atmosphere of 5% CO2. All cell lines were purchased from ATCC (Maryland, USA) except where noted.
(§4) IC50 values were determined for each cell line. Cells were seeded in 96-well plates at an appropriate cell density as determined from growth kinetics analysis and cultured for 5 days in the absence and presence of the test compounds. Cell proliferation was assessed after the addition of 20 μl of 3-4,5 dimethylthiazol-2,5-diphenyl tetrazolium bromide (MTT, 2.5 mg/ml in PBS, Sigma) for 3-4 hrs at 37° C. according to manufacturer's instructions. IC50 values were calculated from semi-log plots of % of control proliferation on the y-axis against log dose on the x-axis.

Experiment [5] deals with HTB-138 (Glioma). In words: Proliferation assay (MTT). It counts as cell-based. Conditions: Table 2.2; Glioma HTB-138. The procedure: as §3, §4
The test system of experiment [6] is NCI-H460 (Lung). Nature of the experiment: Proliferation assay (MTT). It counts as cell-based. The conditions noted are these: Homo sapiens, NCI-H460, Table 2.2; NSC Lung NCI-H460. Here is the method: as §3, §4
Experiment [7] concerns PC3 prostate cancer cell line. Nature of the experiment: Proliferation assay (MTT). It counts as cell-based. Conditions: Table 2.2. Here is the method: as §3, §4
The subject of experiment [8] is CCRF-CEM (Leukemic). In words: Proliferation assay (MTT). Format: cell-based. Conditions: Homo sapiens, CCRF-CEM, Table 2.2; Leukaemia CCRF-CEM. The procedure: as §3, §4
Experiment [9] deals with MM200 melanoma cell line. Nature of the experiment: Proliferation assay (MTT). Format: cell-based. Conditions: Table 2.2; Melanoma MM200; read-out: IC50.
Experiment [10] deals with CP70 ovarian cancer cell line. Nature of the experiment: Proliferation assay (MTT). Format: cell-based. The conditions noted are these: Table 2.2 (further studies); Ovarian CP70; read-out: IC50.
In experiment [11] the test system is HPAC (CRL-2119) pancreatic cancer cell line. In words: Proliferation assay (MTT). The conditions noted are these: Homo sapiens, HPAC, Table 2.2; Pancreatic HPAC; read-out: IC50. It counts as cell-based, human.
In experiment [12] the test system is TNFα. In words: Inhibition of TNFα in LPS-stimulated murine macrophages (RAW 264.7). Format: cell-based, mouse. The conditions noted are these: for Inhibition of TNFα, dose dependence: over the concentration ranges tested. The procedure:
The mouse macrophage cell line RAW 264.7 was cultured in DMEM supplemented with FCS, 2 mM glutamine and 50 U/ml penicillin/streptomycin. Subconfluent cells were detached from the flask by gentle scraping and 24-well plates seeded at 5×10^5 cells per well and allowed to adhere for 1 hr. Cells were treated with either test agent (in 0.025% DMSO) or vehicle alone, 1 hr prior to the addition of 50 ng/ml LPS. After incubation for 16 hrs, culture media was collected and stored at −80° C. for TNFα measurement using an enzyme immunometric assay (Becton Dickinson).

Experiment [13] has as its system Mel-RM melanoma cell line. Nature of the experiment: HMC combination with doxorubicin (synergy). It counts as cell-based. The conditions noted are these: Table 12, single agent. Here is the method: (§5) IC50 values were determined for each cell line. Cells were seeded in 96-well plates at an appropriate cell density as determined from growth kinetics analysis and cultured for 5 days in the absence and presence of the test compounds. […] IC50 values were calculated from semi-log plots of % of control proliferation on the y-axis against log dose on the x-axis.
(§6) 3-D model analysis of the cytotoxic interaction between drug A and drug B enables the representation of predicted inhibitory effect of two drugs in combination in 3 dimensions to reveal actual regions of synergy or antagonism. […] Theoretical Additivity was calculated from the cytotoxicities of drug A and drug B as monotherapies using the following formula which assumes the drugs are mutually exclusive inhibitors: […]
HMC synergy with doxorubicin was assessed either in combination over 5 days exposure or in sequence (HMC→doxorubicin) against the Mel-RM melanoma cell line.

The subject of experiment [14] is Mel-RM melanoma cell line. In words: HMC combination with gemcitabine (synergy). Conditions: Table 9, single agent. Format: cell-based. The procedure: as §4
(§7) 3-D model analysis of the cytotoxic interaction between drug A and drug B enables the representation of predicted inhibitory effect of two drugs in combination in 3 dimensions to reveal actual regions of synergy or antagonism. The 3D synergy plots are based on a theory of “Theretical Additivity” (TA) as outlined by Kanzawa et al (Int. J. Cancer 71, 311-319 (1997)). Theoretical Additivity was calculated from the cytotoxicities of drug A and drug B as monotherapies using the following formula which assumes the drugs are mutually exclusive inhibitors: […]
(§8) The TA is calculated for each combination of drug concentrations and subtracted from the observed experimental effect for each combination to give a measurement of synergisitic action.
HMC synergy with gemcitabine was assessed either in combination over 5 days exposure or in sequence (HMC→gemcitabine) against the Mel-RM melanoma cell line. It was difficult to assess for synergisitic toxicity using a change in IC50 as a measure of synergy due to HMC toxicity as monotherapy (Table 9). […] Evidence of synergy using the HMC-gemcitabine combination was further assessed using the HMC→gemcitabine sequence (24 hr exposure to each compound in sequence) against the melanoma cell line Mel-RM. Using change in IC50 to assess for synergy it was noted that HMC at concentrations of 2 and 1 μM markedly chemosensitised the Mel-RM cells to gemcitabine by >1000 fold. HMC-induced chemosensitisation of Mel-RM cells to gemcitabine was confirmed using 3D analysis of the data.

The test system of experiment [15] is 4405 melanoma cell line. In words: HMC combination with paclitaxel (synergy). It counts as cell-based. Conditions: Table 10; single agent, 24 hr exposure; read-out: IC50, 24 hr (monotherapy). The procedure: as §4, §7, §8
HMC synergy with paclitaxel was assessed either in combination over 5 days exposure or in sequence (HMC→paclitaxel) against the 4405 melanoma cell line. It was difficult to assess for synergisitic toxicity using a change in IC50 as a measure of synergy due to HMC toxicity as monotherapy (Table 10). […] Evidence of synergy using the HMC-paclitaxel combination was further assessed using the HMC→paclitaxel sequence (24 hr exposure to each compound in sequence) against the melanoma cell line 4405. Using change in IC50 to assess for synergy it was noted that HMC at concentrations of 2 μM markedly chemosensitised the 4405 cells to paclitaxel by >1000 fold (Table 10). HMC-induced chemosensitisation of […] cells to paclitaxel was confirmed using 3D analysis of the data.

Experiment [16] concerns MM200 melanoma cell line. Nature of the experiment: HMC combination with topotecan (synergy). Format: cell-based. Conditions: Table 11, single agent. The procedure: as §5, §6
HMC synergy with topotecan was assessed either in combination over 5 days exposure or in sequence (HMC→topotecan) against the MM200 melanoma cell line.

Where [17] appears, read: Concentration 10 μM, RAW 264.7, LPS 50 ng/ml, 16 hrs.
Where [18] appears, read: 120 h, 5 days exposure, read-out: IC50, Combined (monotherapy).
Setting [19] is: 24 hr exposure, read-out: IC50, 24 hr (monotherapy).

Where only a bound is given, the exact number is not on record here.

As for `Oc1ccc(C2COc3cc(O)ccc3C2c2ccccc2)cc1` (stereo not shown) [Compound 2, 3-(4-hydroxyphenyl)-4-phenylchroman-7-ol], the IC50 (as a rule, the concentration at which inhibition is half-maximal) in experiment [1] was 1.9 µM; in experiment [4], 59.4 µM; in [5] it was 3.77 µM; in [6], 5.4 ± 2.1 µM; in experiment [7] it was 4.2 ± 0.02 µM; in [8], 4.02 µM. For the same compound, the IC50 in [9] was 7.34 µM; in experiment [10], 3 ± 1.2 µM; in experiment [11], 24.4 ± 12 µM. The “Percentage change in PGE2 synthesis vs vehicle alone” value in experiment [2] is recorded as −12.6%. Besides, in experiment [3], the “Percentage change in TXB2 synthesis vs vehicle alone” value was 16%.

For `COc1ccc(C2c3ccc(O)cc3OCC2c2ccc(OC)c(OC)c2)cc1` (stereo not shown) [Compound 4, 3-(3,4-dimethoxyphenyl)-4-(4-methoxyphenyl)chroman-7-ol], the “Inhibition of TNFα” value in experiment [12] (Concentration 0.001 μM) is −14.3; in experiment [12] (Concentration 0.01 μM) it was −11.3; in [12] (Concentration 0.1 μM), −6.3; in experiment [12] (Concentration 1 μM), −11.9; in experiment [12] (setting [17]), −6.1.

Consider `COc1ccc(C2COc3cc(OC)ccc3C2c2ccc(OC)cc2)cc1` (stereo not shown) [Compound 6, 3-(4-methoxyphenyl)-4-(4-methoxyphenyl)-7-methoxychroman], for which the IC50 in experiment [1] was 28.7 ± 3.6 µM; in experiment [4], > 100 µM; in [5], > 100 µM; in [7], 116 ± 57 µM; in [8] it was 92 ± 81.6 µM; in experiment [9], > 100 µM. Further, the IC50 in experiment [10] and in [11] was > 100 µM throughout. The “Percentage change in PGE2 synthesis vs vehicle alone” value in experiment [2] is recorded as −37.7%. Besides, the “Percentage change in TXB2 synthesis vs vehicle alone” value in experiment [3] is given as −16.4%. Further, the “Inhibition of TNFα” value in experiment [12] (Concentration 0.001 μM) is 1.0; in experiment [12] (Concentration 0.1 μM) it was −10.4; in experiment [12] (Concentration 1 μM) it was −13.0; in experiment [12] (setting [17]) it was −48.7. The “Inhibition of TNFα, dose dependence” value in experiment [12] is reported as “inhibit TNFα in murine macrophages in a dose dependent manner”.

Turning to `COc1cc(O)cc(OC)c1C1c2ccc(O)cc2OCC1c1ccc(O)cc1` (stereo not shown) [Compound 7, 3-(4-hydroxyphenyl)-4-(2,6-dimethoxy-4-hydroxyphenyl)chroman-7-ol], the “Inhibition of TNFα” value in experiment [12] (Concentration 0.001 μM) is given as 19.2; in [12] (Concentration 0.1 μM), −1.4; in experiment [12] (Concentration 1 μM), −25.4; in experiment [12] (setting [17]), −26.2. Further, the “Inhibition of TNFα, dose dependence” value in [12] is given as “inhibit TNFα in murine macrophages in a dose dependent manner”.

As to `Nc1cccc(C2c3ccc(O)cc3OCC2c2ccc(O)cc2)c1` (stereo not shown) [Compound 14, 3-(4-hydroxyphenyl)-4-(3-aminophenyl)chroman-7-ol], the IC50 in [1] came out at 56.6 µM; in experiment [4], 45 ± 4.7 µM; in [5], 53.5 ± 14 µM; in [6], 65 µM; in [7] it was 32.5 ± 2.1 µM; in [8] it was 73 ± 51.6 µM. Besides, the IC50 in [9] was 93 ± 2.9 µM; in experiment [10], > 100 µM; in experiment [11], 79 ± 56 µM.

Consider `COc1cccc2c1C(=O)c1c(O)c3c(c(O)c1C2=O)C[C@@](O)(C(=O)CO)C[C@@H]3O[C@H]1C[C@H](N)[C@H](O)[C@H](C)O1` [Doxorubicin, doxorubicin, reference compound], for which the IC50 in experiment [13] (setting [18]) came out at 190 nM; in [13] (setting [19]), 100 nM.

Take `Nc1ccn([C@@H]2O[C@H](CO)[C@@H](O)C2(F)F)c(=O)n1` [Gemcitabine, gemcitabine, reference compound]: the IC50 in [14] (setting [18]) stood at 3.88 nM; in experiment [14] (setting [19]), 4.67 nM.

As for `CC(=O)O[C@H]1C(=O)[C@@]2(C)[C@H]([C@H](OC(=O)c3ccccc3)[C@]3(O)C[C@H](OC(=O)[C@H](O)[C@@H](NC(=O)c4ccccc4)c4ccccc4)C(C)=C1C3(C)C)[C@]1(OC(C)=O)CO[C@@H]1C[C@@H]2O` [Paclitaxel, paclitaxel, reference compound], in experiment [15], the IC50 stood at 0.584 nM.

Turning to `CC[C@@]1(O)C(=O)OCc2c1cc1n(c2=O)Cc2cc3c(CN(C)C)c(O)ccc3nc2-1` [Topotecan, topotecan, reference compound], the figures for the IC50 in experiment [16] (setting [18]) and in experiment [16] (setting [19]) were 95 nM and 2220 nM, respectively.

The values above are taken from US8163795B2, “Chroman derivatives, medicaments and use in therapy” (Marshall Edwards, Inc., priority 2004, dated 2012).
